# Measured values as given in patent EP4603105A1, “PHARMACEUTICAL COMPOSITION CONTAINING CYCLIC COMPOUND HAVING SELECTIVE KRAS INHIBITORY EFFECT AGAINST HRAS AND NRAS” (CHUGAI SEIYAKU KABUSHIKI KAISHA, priority 2022, dated 2024).
# Where a SMILES comes first, the peptide text is derived from it. Bridges are numbered along the chain shown (N, C = ends). [ ]: non-standard residue; d: D form. The star is where a group is joined. hPhe(3-Cl-4-CF3) = N[C@@H](CCc1ccc(C(F)(F)F)c(Cl)c1)C(=O)O; NPrPhe(4-CF3) = CCCN[C@@H](Cc1ccc(C(F)(F)F)cc1)C(=O)O; NMeGly(cPent) = CN[C@H](C(=O)O)C1CCCC1; Gly(cPent) = N[C@H](C(=O)O)C1CCCC1; NMeD = CN[C@@H](CC(=O)O)C(=O)O; NMeL = CN[C@@H](CC(C)C)C(=O)O; NMeNva = CCC[C@H](NC)C(=O)O; Pip = O=C(O)[C@@H]1CCCCN1; Morpholide = C1CN(*)CCO1; Ac5c = NC1(C(=O)O)CCCC1; Aze = O=C(O)[C@@H]1CCN1; Ac4c = NC1(C(=O)O)CCC1; NPrGly = CCCNCC(=O)O; NEtG = CCNCC(=O)O; Sar = CNCC(=O)O
# Assays:
# [1] = molecular target: GDP-bound NRAS wild-type protein (Homo sapiens, UniProt P01111); assay: Binding to NRAS by surface plasmon resonance (SPR), KD and KD ratio to KRAS
# Chain of GDP-bound NRAS wild-type protein (P01111 whole entry): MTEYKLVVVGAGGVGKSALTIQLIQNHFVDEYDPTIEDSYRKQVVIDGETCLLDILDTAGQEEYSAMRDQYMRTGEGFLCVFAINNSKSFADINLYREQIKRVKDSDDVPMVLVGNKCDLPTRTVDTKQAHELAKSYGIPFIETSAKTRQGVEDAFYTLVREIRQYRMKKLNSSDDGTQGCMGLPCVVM
# In short: (§1)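 GDP-bound biotin-Avi RAS captured at ~100–300 RU, 30°C, pH 7.4 HBS containing 10 µM GDP, 10 mM MgCl2, 1 mM DTT, 0.01% Tween 20 and 4% DMSO. KD by 1:1 fitting.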
# HRAS wild-type protein = HRAS wild-type protein (Homo sapiens, UniProt P01112); assay: Binding to HRAS by surface plasmon resonance (SPR), KD and KD ratio to KRAS
# Chain of HRAS wild-type protein (P01112 whole entry): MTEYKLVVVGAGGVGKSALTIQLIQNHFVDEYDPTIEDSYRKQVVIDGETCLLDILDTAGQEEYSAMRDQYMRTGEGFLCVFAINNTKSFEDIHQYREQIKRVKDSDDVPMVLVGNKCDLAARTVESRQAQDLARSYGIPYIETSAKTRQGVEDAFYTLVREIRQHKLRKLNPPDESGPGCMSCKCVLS
# In short: as §1
# [2] = molecular target: GDP-bound KRAS wild-type protein (Homo sapiens, UniProt P01116); assay: Binding to KRAS by surface plasmon resonance (SPR), dissociation constant KD; conditions: 1:1 binding model
# Chain of GDP-bound KRAS wild-type protein (P01116 1-188 isoform P01116-2): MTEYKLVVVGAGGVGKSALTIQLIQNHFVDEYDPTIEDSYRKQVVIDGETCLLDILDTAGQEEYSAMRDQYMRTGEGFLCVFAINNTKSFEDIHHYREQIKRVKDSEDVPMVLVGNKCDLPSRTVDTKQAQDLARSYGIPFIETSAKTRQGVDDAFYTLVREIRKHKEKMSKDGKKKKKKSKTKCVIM
# In short: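 Measured at 30°C: SPR with GDP-loaded, E. coli-expressed biotin-Avi RAS captured (~100–300 RU), ascending 75 s compound injections, HBS pH 7.4 with GDP, MgCl2, 4% DMSO. KD from 1:1 fit.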
# [3] = tested on: human lung cancer strain NCI-H441; format: cell-based
# In short: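 Readout: […] after the ATP-based reagent. Compound: serial dilutions in dimethyl sulfoxide.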
# [4] = ratio of KD for GDP-bound NRAS wild-type protein to KD for KRAS
# [5] = ratio of KD for HRAS wild-type protein to KD for KRAS
# [6] = ratio of the KD value with respect to GDP-bound NRAS wild-type protein to the KD value with respect to KRAS
# [7] = ratio of the KD value with respect to HRAS wild-type protein to the KD value with respect to KRAS
# [8] = ratio of KD value for GDP-bound NRAS wild-type protein to KD value for KRAS (SPR)
# [9] = ratio of KD value for HRAS wild-type protein to KD value for KRAS (SPR)
Structure (SMILES),"NRAS /KRAS [1, 4]",HRAS /KRAS (HRAS wild-type protein; [5]),Kd [2] [nM],IC50 [3] [nM],"NRAS /KRAS [1, 6]",HRAS /KRAS (HRAS wild-type protein; [7]),Kd ([2]; Single Cycle Kinetics) [nM],"NRAS /KRAS [1, 8]",HRAS /KRAS (HRAS wild-type protein; [9])
CCCN1C(=O)[C@@H]2CCN2C(=O)[C@@H]2CCCCN2C(=O)[C@H]([C@@H](C)CC)NC(=O)[C@H](CC(C)C)N(C)C(=O)C[C@@H](C(=O)N2CCOCC2)N(C)C(=O)[C@H](C2CCCC2)N(C)C(=O)C2(CCCC2)NC(=O)[C@@H]2CCCN2C(=O)[C@H](CCc2ccc(C(F)(F)F)c(Cl)c2)NC(=O)CN(C)C(=O)[C@@H]1Cc1ccc(C(F)(F)F)cc1 [PP0077] ([NMeL]I[Pip][Aze][NPrPhe(4-CF3)][Sar][hPhe(3-Cl-4-CF3)]P[Ac5c][NMeGly(cPent)][NMeD]-Morpholide; lactam N-11),C (A compound having a KD ratio of 0.1 or more and less than 3 is denoted as C),B (a compound having 3 or more and less than 10 is denoted as B),0.2,5.3,–,–,–,–,–
CCC[C@H]1C(=O)N[C@@H](C2CCC2)C(=O)N(C)CC(=O)N(C)[C@H]2C/C=C\CCN(C2=O)[C@@H](Cc2ccc(C)cc2)C(=O)N(C)CC(=O)N[C@@H](CCc2ccc(C(F)(F)F)c(F)c2)C(=O)N2C[C@H](OCC)C[C@H]2C(=O)NC2(CC(C)(C)C2)C(=O)N(C)[C@@H](C2CCC2)C(=O)N(C)[C@H](C(=O)N(C)C)CC(=O)N1C [PP2242],–,–,–,178,A (a compound having 10 or more and less than 20 is denoted as A),A (a compound having 10 or more and less than 20 is denoted as A),1.8,–,–
CCO[C@@H]1C[C@H]2C(=O)NC3(CCC3)C(=O)N(C)[C@@H](C3CCCC3)C(=O)N(C)[C@H](C(=O)N(C)C)CC(=O)N(C)[C@@H](CC3CCCC3)C(=O)N[C@@H]([C@@H](C)CC)C(=O)N(C)CC(=O)N(C)[C@H]3C/C=C\CCN(C3=O)[C@@H](Cc3ccc(C)cc3)C(=O)N(C)CC(=O)N[C@@H](CCc3ccc(C4CC4)c(Cl)c3)C(=O)N2C1 [PP2684],A (a compound having 10 or more and less than 20 is denoted as A),A (a compound having 10 or more and less than 20 is denoted as A),0.43,57.9,–,–,–,–,–
CCO[C@@H]1C[C@H]2C(=O)NC3(CCC3)C(=O)N(C)[C@@H](C3CCCC3)C(=O)N(C)[C@H](C)CC(=O)N(C)[C@@H](CC(C)C)C(=O)N[C@@H]([C@@H](C)CC)C(=O)N(C)CC(=O)N(C)[C@H]3C/C=C\CCN(C3=O)[C@@H](Cc3ccc(F)cc3C)C(=O)N(C)CC(=O)N[C@@H](CCc3cc(F)c(C(F)(F)F)c(F)c3)C(=O)N2C1 [PP1493],–,–,–,135,–,–,2.3,B (a compound having 3 or more and less than 10 is denoted as B),B (a compound having 3 or more and less than 10 is denoted as B)
CCCN1C(=O)CN(C)C(=O)CN(CC)C(=O)[C@H]([C@@H](C)CC)NC(=O)[C@H](CC(C)C)N(C)C(=O)C[C@@H](C(=O)N2CCOCC2)N(C)C(=O)[C@H](C2CCCC2)N(C)C(=O)C2(CCCC2)NC(=O)[C@@H]2CCCCN2C(=O)[C@H](CCc2ccc(C(F)(F)F)c(Cl)c2)NC(=O)CN(C)C(=O)[C@@H]1Cc1ccc(C(F)(F)F)cc1 [PP0297] ([NMeL]I[NEtG][Sar][NPrPhe(4-CF3)][Sar][hPhe(3-Cl-4-CF3)][Pip][Ac5c][NMeGly(cPent)][NMeD]-Morpholide; lactam N-11),B (a compound having 3 or more and less than 10 is denoted as B),C (A compound having a KD ratio of 0.1 or more and less than 3 is denoted as C),2.3,74.3,–,–,–,–,–
CCO[C@@H]1C[C@H]2C(=O)NC3(CCC3)C(=O)N(C)[C@@H](C(CC)CC)C(=O)N(C)[C@H](C)CC(=O)N(C)[C@@H](CC(C)C)C(=O)N[C@@H]([C@@H](C)CC)C(=O)N(C)CC(=O)N(C)[C@H]3C/C=C\CCN(C3=O)[C@@H](Cc3ccc(F)cc3)C(=O)N(C)CC(=O)N[C@@H](CCc3cc(F)c(C(F)(F)F)c(F)c3)C(=O)N2C1 [PP1525],–,–,–,132,–,–,1.7,A (a compound having 10 or more and less than 20 is denoted as A),A (a compound having 10 or more and less than 20 is denoted as A)
CCO[C@@H]1C[C@H]2C(=O)NC3(CC(C)(C)C3)C(=O)N(C)[C@@H](C(CC)CC)C(=O)N(C)[C@H](C(=O)N(C)C)CC(=O)N(C)[C@H]3CC/C=C/c4ccc(cc4)C[C@@H](C(=O)N(C)CC(=O)N[C@@H](CCc4cc(F)c(C(F)(F)F)c(F)c4)C(=O)N2C1)N1CC/C=C\C[C@@H](C1=O)N(C)C(=O)CN(C)C(=O)[C@H]([C@@H](C)CC)NC3=O [PP2586],A (a compound having 10 or more and less than 20 is denoted as A),B (a compound having 3 or more and less than 10 is denoted as B),0.17,14.4,–,–,–,–,–
CCO[C@@H]1C[C@H]2C(=O)NC3(CCC3)C(=O)N(C)[C@@H](C3CCCC3)C(=O)N(C)[C@H](C(=O)N(C)CC)CC(=O)N(C)[C@@H](CC(F)(F)F)C(=O)N[C@@H]([C@@H](C)CC)C(=O)N(C)CC(=O)N(C)[C@H]3C/C=C\CCN(C3=O)[C@@H](Cc3ccc(C(F)(F)F)cc3)C(=O)N(C)CC(=O)N[C@@H](CCc3cc(F)c(C(F)(F)F)c(F)c3)C(=O)N2C1 [PP1701],–,–,–,3.7,–,–,0.08,A (a compound having 10 or more and less than 20 is denoted as A),A (a compound having 10 or more and less than 20 is denoted as A)
CCO[C@@H]1C[C@H]2C(=O)NC3(CCC3)C(=O)N(C)[C@@H](C3CCCC3)C(=O)N(C)[C@H](C(=O)N(C)C)CC(=O)N(C)[C@@H](CC(C)(C)C)C(=O)N[C@@H]([C@@H](C)CC)C(=O)N(C)CC(=O)N(C)[C@H]3CCCCCN(C3=O)[C@@H](Cc3ccc(C(F)(F)F)cc3)C(=O)N(C)CC(=O)N[C@@H](CCc3cc(F)c(C(F)(F)F)c(F)c3)C(=O)N2C1 [PP0669],–,–,–,20.3,B (a compound having 3 or more and less than 10 is denoted as B),B (a compound having 3 or more and less than 10 is denoted as B),0.52,–,–
CCO[C@@H]1C[C@H]2C(=O)NC3(CCC3)C(=O)N(C)[C@@H](C3CCCC3)C(=O)N(C)[C@H](C)CC(=O)N(C)[C@@H](CC3CC3)C(=O)N[C@@H]([C@@H](C)CC)C(=O)N(C)CC(=O)N(C)[C@H]3C/C=C\CCN(C3=O)[C@@H](Cc3ccc(F)cc3C)C(=O)N(C)CC(=O)N[C@@H](CCc3cc(F)c(C(F)(F)F)c(F)c3)C(=O)N2C1 [PP1489],–,–,–,118,–,–,2.6,B (a compound having 3 or more and less than 10 is denoted as B),B (a compound having 3 or more and less than 10 is denoted as B)
CCCN1C(=O)CN(C)C(=O)[C@@H]2CCN2C(=O)[C@H](C2CCCC2)NC(=O)[C@H](CC(C)C)N(C)C(=O)C[C@@H](C(=O)N2CCOCC2)N(C)C(=O)[C@H](C2CCCC2)N(C)C(=O)C2(CCCC2)NC(=O)[C@@H]2CCCN2C(=O)[C@H](CCc2ccc(C(F)(F)F)c(Cl)c2)NC(=O)CN(C)C(=O)[C@@H]1Cc1ccc(C(F)(F)F)cc1 [PP0306] ([NMeL][Gly(cPent)][Aze][Sar][NPrPhe(4-CF3)][Sar][hPhe(3-Cl-4-CF3)]P[Ac5c][NMeGly(cPent)][NMeD]-Morpholide; lactam N-11),B (a compound having 3 or more and less than 10 is denoted as B),B (a compound having 3 or more and less than 10 is denoted as B),1.2,142,–,–,–,–,–
CCC[C@H]1C(=O)N[C@@H]([C@@H](C)CC)C(=O)N(C)CC(=O)N(CCC)CC(=O)N(CCC)[C@@H](Cc2ccc(C(F)(F)F)cc2)C(=O)N(C)CC(=O)N[C@@H](CCc2ccc(C(F)(F)F)c(Cl)c2)C(=O)N2CCC[C@H]2C(=O)NC2(CCC2)C(=O)N(C)[C@@H](C2CCCC2)C(=O)N(C)[C@H](C(=O)N2CCOCC2)CC(=O)N1C [PP1949] ([NMeNva]I[Sar][NPrGly][NPrPhe(4-CF3)][Sar][hPhe(3-Cl-4-CF3)]P[Ac4c][NMeGly(cPent)][NMeD]-Morpholide; lactam N-11),–,–,–,9.3,C (A compound having a KD ratio of 0.1 or more and less than 3 is denoted as C),C (A compound having a KD ratio of 0.1 or more and less than 3 is denoted as C),0.92,–,–
CC[C@H](C)[C@@H]1NC(=O)[C@H](CC(C)C)N(C)C(=O)C[C@@H](C(=O)N2CCOCC2)N(C)C(=O)[C@H](C2CCCC2)N(C)C(=O)C2(CCCC2)NC(=O)[C@@H]2CCCN2C(=O)[C@H](CCc2ccc(C(F)(F)F)c(Cl)c2)NC(=O)CN(C)C(=O)[C@H](Cc2ccccc2)N2CCCC[C@@H](C2=O)N(C)C(=O)CN(C)C1=O [PP0529],–,–,–,6.5,C (A compound having a KD ratio of 0.1 or more and less than 3 is denoted as C),B (a compound having 3 or more and less than 10 is denoted as B),0.095,–,–
CCO[C@@H]1C[C@H]2C(=O)NC3(CC(C)(C)C3)C(=O)N(C)[C@@H](C3CCCC3)C(=O)N(C)[C@H](C(=O)N(C)C)CC(=O)N(C)[C@@H]([C@@H](C)OC)C(=O)N[C@@H]([C@@H](C)CC)C(=O)N(C)CC(=O)N(C)[C@H]3C/C=C\CCN(C3=O)[C@@H](Cc3ccc(C)cc3)C(=O)N(C)CC(=O)N[C@@H](CCc3ccc(C(F)(F)F)c(OC)c3)C(=O)N2C1 [PP3207],A (a compound having 10 or more and less than 20 is denoted as A),A (a compound having 10 or more and less than 20 is denoted as A),0.059,5.6,–,–,–,–,–
